From US10308644B2, “Heterocyclic compounds as immunomodulators” (Incyte Corporation, priority 2016, dated 2019)

Biological target: PD-1/PD-L1 (Homo sapiens (Human), UniProt Q9NZQ7)
Assay: PD-1/PD-L1 Homogeneous Time-Resolved Fluorescence (HTRF) Binding Assay
Conditions: recombinant human PD-1 (3 nM) and PD-L1 (10 nM), 25° C., PBS pH 7.4
Outline: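 Fc-tagged human PD-1 (25-167, 3 nM) and His-tagged PD-L1 (19-238, 10 nM) preincubated with inhibitor 40 min in PBS pH 7.4, 0.05% Tween-20, 0.1% BSA, 1% DMSO, 25 °C. Binding detected by HTRF (Eu anti-IgG/APC anti-His, 665/620 nm) after 60 min; IC50 from percent control activity.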

Sequence of PD-1/PD-L1 (Q9NZQ7 19-238): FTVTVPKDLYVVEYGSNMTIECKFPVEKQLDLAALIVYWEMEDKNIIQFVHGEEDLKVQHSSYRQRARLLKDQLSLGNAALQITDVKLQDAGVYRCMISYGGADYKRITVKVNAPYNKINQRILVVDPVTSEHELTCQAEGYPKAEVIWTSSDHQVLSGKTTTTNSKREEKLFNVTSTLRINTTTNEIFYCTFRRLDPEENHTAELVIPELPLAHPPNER

IC50, ≤ 10 nM:
Cc1c(Nc2nccc3cc(CN4CC[C@@H](O)C4)cnc23)cccc1-c1cccc(-c2nc3cc(CN4CC[C@H](CC(=O)O)C4)cc(C#N)c3o2)c1C [Example 173, 2-((R)-1-((7-cyano-2-(3′-(3-(((R)-3-hydroxypyrrolidin-1-yl)methyl)-1,7-naphthyridin-8-ylamino)-2,2′-dimethylbiphenyl-3-yl)benzo[d]oxazol-5-yl)methyl)pyrrolidin-3-yl)acetic acid]
Cc1c(-c2nc3cc(CN4CC[C@@H](O)C4)cc(C#N)c3o2)cccc1-c1cccc(NC(=O)c2nc3c(n2C)CCN(CCC2CCC(C(=O)O)CC2)C3)c1Cl (stereo partly drawn) [Example 265, (R)-4-(2-(2-(2-chloro-3′-(7-cyano-5-((3-hydroxypyrrolidin-1-yl)methyl)benzo[d]oxazol-2-yl)-2′-methylbiphenyl-3-ylcarbamoyl)-1-methyl-6,7-dihydro-1H-imidazo[4,5-c]pyridin-5(4H)-yl)ethyl)cyclohexane carboxylic acid]
Cc1c(-c2nc3cc(CN4CC[C@@H](C(=O)O)C4)cc(C#N)c3o2)cccc1-c1cccc(N2CCC(N[C@H]3C[C@@H](O)C3)CC2)c1Cl [Example 47, (R)-1-((2-(2′-chloro-3′-(4-((1s,3s)-3-hydroxycyclobutylamino)piperidin-1-yl)-2-methylbiphenyl-3-yl)-7-cyanobenzo[d]oxazol-5-yl)methyl)pyrrolidine-3-carboxylic acid]
Cc1c(Nc2nccc3cc(C4CN(CCO)C4)cnc23)cccc1-c1cccc(-c2nc3cc(CN4CC[C@@H](C(=O)O)C4)cc(C#N)c3o2)c1C [Example 96, (R)-1-((7-cyano-2-(3′-(3-(1-(2-hydroxyethyl)azetidin-3-yl)-1,7-naphthyridin-8-ylamino)-2,2′-dimethylbiphenyl-3-yl)benzo[d]oxazol-5-yl)methyl)pyrrolidine-3-carboxylic acid]
Cc1c(Nc2nccc3cc(CN4CC[C@H](O)C4)cnc23)cccc1-c1cccc(-c2nc3cc(CN4CC(C(=O)O)C4)cc(Cl)c3o2)c1C [Example 23, (S)-1-((7-chloro-2-(3′-(3-((3-hydroxypyrrolidin-1-yl)methyl)-1,7-naphthyridin-8-ylamino)-2,2′-dimethylbiphenyl-3-yl)benzo[d]oxazol-5-yl)methyl)azetidine-3-carboxylic acid]
Cc1c(Nc2nccc3cc(C4=NCCN4)cnc23)cccc1-c1cccc(-c2nc3cc(CN4CC[C@@H](C(=O)O)C4)cc(C#N)c3o2)c1C [Example 166, (R)-1-((7-cyano-2-(3′-(3-(4,5-dihydro-1H-imidazol-2-yl)-1,7-naphthyridin-8-ylamino)-2,2′-dimethylbiphenyl-3-yl)benzo[d]oxazol-5-yl)methyl)pyrrolidine-3-carboxylic acid]
Cc1c(Nc2nccc3cc(CN4CC[C@@H](O)C4)cnc23)cccc1-c1cccc(-c2nc3cc(CN[C@H]4CC[C@H](CC(=O)O)CC4)cc(C#N)c3o2)c1C [Example 184, 2-(trans-4-((7-cyano-2-(3′-(3-(((R)-3-hydroxypyrrolidin-1-yl)methyl)-1,7-naphthyridin-8-ylamino)-2,2′-dimethylbiphenyl-3-yl)benzo[d]oxazol-5-yl)methylamino)cyclohexyl)acetic acid]
Cc1c(-c2nc3cc(CN4CC5(CC(C(=O)O)C5)C4)cc(C#N)c3o2)cccc1-c1cccc(-c2nc3c(s2)CN(C(=O)CN(C)[C@@H](C)CO)C3)c1C [Example 232, 2-((7-cyano-2-(3′-(5-(2-(((S)-1-hydroxypropan-2-yl)(methyl)amino)acetyl)-5,6-dihydro-4H-pyrrolo[3,4-d]thiazol-2-yl)-2,2′-dimethylbiphenyl-3-yl)benzo[d]oxazol-5-yl)methyl)-2-azaspiro[3.3]heptane-6-carboxylic acid]
Cc1c(-c2nc3c(o2)CN(C(=O)CN(C)C(C)C)C3)cccc1-c1cccc(-c2nc3cc(CN4CC[C@@](C)(C(=O)O)C4)cc(C#N)c3o2)c1C [Example 248, (R)-1-((7-cyano-2-(3′-(5-(N-isopropyl-N-methylglycyl)-5,6-dihydro-4H-pyrrolo[3,4-d]oxazol-2-yl)-2,2'-dimethyl-[1,1′-biphenyl]-3-yl)benzo[d]oxazol-5-yl)methyl)-3-methylpyrrolidine-3-carboxylic acid]
Cc1c(Nc2nccc3cc(CNCCO)cnc23)cccc1-c1cccc(-c2nc3cc(CNCCC(=O)O)cc(Cl)c3o2)c1C [Example 6, 3-(((7-chloro-2-(3′-((3-(((2-hydroxyethyl)amino)methyl)-1,7-naphthyridin-8-yl)amino)-2,2′-dimethyl-[1,1′-biphenyl]-3-yl)benzo[d]oxazol-5-yl)methyl)amino)propanoic acid]
Cc1c(-c2nc3cc(CN4CC[C@H](C(=O)O)C4)cc(C#N)c3o2)cccc1-c1cccc(NC(=O)c2nc3c(n2C)CCN(CCO)C3)c1Cl [Example 93, (S)-1-((2-(2′-chloro-3′-(5-(2-hydroxyethyl)-1-methyl-4,5,6,7-tetrahydro-1H-imidazo[4,5-c]pyridine-2-carboxamido)-2-methylbiphenyl-3-yl)-7-cyanobenzo[d]oxazol-5-yl)methyl)pyrrolidine-3-carboxylic acid]
Cc1c(-c2nc3cc(CN4CC[C@@](C)(C(=O)O)C4)cc(C#N)c3o2)cccc1-c1cccc(-c2nc3c(s2)CN(C(=O)CN[C@H]2C[C@H](O)C2)C3)c1C [Example 229, (R)-1-((7-cyano-2-(3′-(5-(2-(trans-3-hydroxycyclobutylamino)acetyl)-5,6-dihydro-4H-pyrrolo[3,4-d]thiazol-2-yl)-2,2′-dimethylbiphenyl-3-yl)benzo[d]oxazol-5-yl)methyl)-3-methylpyrrolidine-3-carboxylic acid]
Cc1c(-c2nc3cc(CN4CC[C@@H](C(=O)O)C4)cc(Cl)c3o2)cccc1-c1cccc(-c2nc3c(s2)CN(C(C)C)CC3)c1C [Example 59, (R)-1-((7-chloro-2-(3′-(5-isopropyl-4,5,6,7-tetrahydrothiazolo[5,4-c]pyridin-2-yl)-2,2′-dimethyl-[1,1′-biphenyl]-3-yl)benzo[d]oxazol-5-yl)methyl)pyrrolidine-3-carboxylic acid]
Cc1c(-c2nc3cc(CN4CC[C@@H](C(=O)O)C4)cc(C#N)c3o2)cccc1-c1cccc(NC(=O)c2nc3c(n2C)CC(C)NC3)c1Cl (stereo partly drawn) [Example 159, (3R)-1-((2-(2′-chloro-3′-(1,6-dimethyl-4,5,6,7-tetrahydro-1H-imidazo[4,5-c]pyridine-2-carboxamido)-2-methylbiphenyl-3-yl)-7-cyanobenzo[d]oxazol-5-yl)methyl)pyrrolidine-3-carboxylic acid]
Cc1c(Nc2nccc3cc(CN4CC[C@@H](O)C4)cnc23)cccc1-c1cccc(-c2nc3cc(CN[C@H]4CC[C@@H](C(=O)O)CC4)cc(C#N)c3o2)c1C [Example 172, cis-4-((7-cyano-2-(3′-(3-(((R)-3-hydroxypyrrolidin-1-yl)methyl)-1,7-naphthyridin-8-ylamino)-2,2′-dimethylbiphenyl-3-yl)benzo[d]oxazol-5-yl)methylamino) cyclohexanecarboxylic acid]
Cc1c(-c2nc3c(o2)CN(C(=O)CN2CC(C)(O)C2)C3)cccc1-c1cccc(-c2nc3cc(CN4CC[C@@H](C(=O)O)C4)cc(C#N)c3o2)c1C [Example 129, (R)-1-((7-cyano-2-(3′-(5-(2-(3-hydroxy-3-methylazetidin-1-yl)acetyl)-5,6-dihydro-4H-pyrrolo[3,4-d]oxazol-2-yl)-2,2′-dimethyl-[1,1′-biphenyl]-3-yl)benzo[d]oxazol-5-yl)methyl)pyrrolidine-3-carboxylic acid]
Cc1c(-c2nc3cc(CN4CC[C@@H](O)C4)cc(C#N)c3o2)cccc1-c1cccc(NC(=O)c2nc3c(n2C)CCN(C[C@H]2CC[C@H](C(=O)O)CC2)C3)c1Cl [Example 261, trans-4-((2-(2-chloro-3′-(7-cyano-5-(((R)-3-hydroxypyrrolidin-1-yl)methyl)benzo[d]oxazol-2-yl)-2′-methylbiphenyl-3-ylcarbamoyl)-1-methyl-6,7-dihydro-1H-imidazo[4,5-c]pyridin-5 (4H)-yl)methyl)cyclohexanecarboxylic acid]
Cc1c(Nc2nccc3cc(CN4CC[C@H](O)C4)cnc23)cccc1-c1cccc(-c2nc3cc(CNCCC(=O)O)cc(Cl)c3o2)c1C [Example 20, (S)-3-((7-chloro-2-(3′-(3-((3-hydroxypyrrolidin-1-yl)methyl)-1,7-naphthyridin-8-ylamino)-2,2′-dimethylbiphenyl-3-yl)benzo[d]oxazol-5-yl)methylamino)propanoic acid]
Cc1c(-c2nc3cc(CN[C@H]4CC[C@H](C(=O)O)CC4)cc(C#N)c3o2)cccc1-c1cccc(NC(=O)c2nc3c(n2C)CCN(C)C3)c1Cl [Example 91, (1R,4R)-4-((2-(2′-chloro-3′-(1,5-dimethyl-4,5,6,7-tetrahydro-1H-imidazo[4,5-c]pyridine-2-carboxamido)-2-methylbiphenyl-3-yl)-7-cyanobenzo[d]oxazol-5-yl)methylamino)cyclohexanecarboxylic acid]
Cc1c(NC(=O)c2nc3c(n2C)CCN(C)C3)cccc1-c1cccc(-c2nc3cc(CN4CC[C@@H](C(=O)O)C4)cc(C#N)c3o2)c1C [Example 80, (R)-1-((7-cyano-2-(3′-(1,5-dimethyl-4,5,6,7-tetrahydro-1H-imidazo[4,5-c]pyridine-2-carboxamido)-2,2′-dimethylbiphenyl-3-yl)benzo[d]oxazol-5-yl)methyl)pyrrolidine-3-carboxylic acid]
Cc1c(-c2nc3c(o2)CN(C(=O)CN2CC[C@H](O)C2)C3)cccc1-c1cccc(-c2nc3cc(CN4CC[C@@H](C(=O)O)C4)cc(C#N)c3o2)c1C [Example 128, (R)-1-((7-cyano-2-(3′-(5-(2-((S)-3-hydroxypyrrolidin-1-yl)acetyl)-5,6-dihydro-4H-pyrrolo[3,4-d]oxazol-2-yl)-2,2′-dimethyl-[1,1′-biphenyl]-3-yl)benzo[d]oxazol-5-yl)methyl)pyrrolidine-3-carboxylic acid]
